Reference: patent US20080234368A9, “Therapeutic compositions and methods of use” (Trustees of Dartmouth College, priority 1998, published 2008)

Columns and labels:
COX-2 mRNA = assay: Northern blot for IL-1β-induced COX-2 mRNA in 18Co colon myofibroblasts; type: cell-based, human; conditions: 18Co cells, IL-1β 30 pg/ml
Procedure: (§1) FIG. 14(A) illustrates Western blots; primary mouse macrophages; IFN-γ, 10 ng/ml; LPS, 2 ng/ml were added to cultures together with triterpenoids or dexamethasone (concentrations shown as […]); cells were harvested at 12 h. FIG. 14(B) illustrates Northern blots, RAW 264.7 macrophage-like cell line. IFN-γ, 10 ng/ml; LPS, 1 ng/ml; TNF-α, 10 ng/ml, were added to cultures together with CDDO or dexamethasone. RNA prepared after 12 h; GAPDH used as a loading control. FIG. 14(C) illustrates suppression of production of NO and PGEF in primary macrophages. For NO studies, cells were treated with IFN-γ, 10 ng/ml, together with CDDO (M), dexamethasone (O), TP-82 (□), or oleanolic acid (A). After 48 h, supernatants were analyzed for NO by the Griess reaction. For PGEF studies, cells were treated with IFN-γ, 5 ng/ml, and LPS, 5 ng/ml, together with the same set of inhibitors. After 48 h, PGE was measured in supernatants by immunoassay. Control values (no inhibition) for NO and PGE2 were 4.7 nmol/[…] and 2.2 ng/ml/2×10^5 cells, respectively. FIGS. (14D) and (14E) illustrate (human colon myofibroblasts) ^18Co cells grown in MEM/10% FBS; other methods are the same as reported above for macrophages. FIG. 14(D) illustrates Northern blots showing dose-response for suppression of COX-2 mRNA after induction with IL-1β (30 pg/ml). CDDO was added together with IL-1. […]

3T3-L1 fibroblasts = assay: Adipogenic differentiation, induction of GPDH; type: cell-based
Procedure: CDDO induces monocytic differentiation in the poorly differentiated LCDB acute myelogenous leukemia cell line, derived from a chemotherapy-resistant patient at the NCI Pediatric Oncology Branch. FIG. 11 illustrates LCDB cells seeded in RPMI 1640/2% FBS, either alone (11A), with 2.5 ng/ml TGF-β1 (11B), with 10^−8 M CDDO (11C), or with both TGF-β1 and CDDO (11D). After 48 h, cytospin slide preparations were made and stained for α-naphthyl acetate esterase activity (kit from Sigma). PC12 cells were cultured for 5 days in gridded dishes in DMEM/10% FBS and 5% horse serum (Smith et al., 1997), either alone (11E), with 100 ng/ml 7S NGF (11F), with 10^−6 M CDDO (11G), or with both NGF and CDDO (11H). […] Methods for quantitative image analysis of size of cells and neurites have been described (De 1a Torre et al., 1997). Control cells in FIG. 11E are approximately 10 μm in diameter. 3T3-L1 cells were grown to confluency in DMEM/5% calf serum, and then treated once with CDDO in DMEM/10% FBS (FIG. 12A) or with CDDO and/or LG100268 in DMEM/10% FBS (FIG. 12B). Every two days thereafter, medium was changed to DMEM/10% FBS, without added CDD0 or LG100268. Cells were harvested on day 8 (FIG. 12A) or day 6 (FIG. 12B), and GPDH was measured in lysates, using a standard assay for consumption of NADH at 340 nm (Wise and Green, 1979). […]

iNOS mRNA = assay: Northern blot for iNOS mRNA in RAW 264.7 cells; type: cell-based, mouse; conditions: CDDO 10^−6 M, RAW 264.7, 12 h
Procedure: as §1

COX-2 = assay: Western blot for IL-1β-induced COX-2 protein in 18Co colon myofibroblasts; type: cell-based, human; conditions: 18Co cells, IL-1β 30 pg/ml
Procedure: as §1

iNOS enzymatic activity = target: T1, iNOS enzymatic activity (Mus musculus, UniProt P29477); assay: NO production in RAW cells with enzyme synthesis already induced; type: cell-based; conditions: added after enzyme synthesis induced; data not shown
T1 construct: added to RAW cells in which synthesis of these two enzymes has already been induced; endogenous in cells; host or cells: RAW 264.7 mouse macrophage-like cells, enzyme synthesis pre-induced
T1 sequence (P29477 whole entry): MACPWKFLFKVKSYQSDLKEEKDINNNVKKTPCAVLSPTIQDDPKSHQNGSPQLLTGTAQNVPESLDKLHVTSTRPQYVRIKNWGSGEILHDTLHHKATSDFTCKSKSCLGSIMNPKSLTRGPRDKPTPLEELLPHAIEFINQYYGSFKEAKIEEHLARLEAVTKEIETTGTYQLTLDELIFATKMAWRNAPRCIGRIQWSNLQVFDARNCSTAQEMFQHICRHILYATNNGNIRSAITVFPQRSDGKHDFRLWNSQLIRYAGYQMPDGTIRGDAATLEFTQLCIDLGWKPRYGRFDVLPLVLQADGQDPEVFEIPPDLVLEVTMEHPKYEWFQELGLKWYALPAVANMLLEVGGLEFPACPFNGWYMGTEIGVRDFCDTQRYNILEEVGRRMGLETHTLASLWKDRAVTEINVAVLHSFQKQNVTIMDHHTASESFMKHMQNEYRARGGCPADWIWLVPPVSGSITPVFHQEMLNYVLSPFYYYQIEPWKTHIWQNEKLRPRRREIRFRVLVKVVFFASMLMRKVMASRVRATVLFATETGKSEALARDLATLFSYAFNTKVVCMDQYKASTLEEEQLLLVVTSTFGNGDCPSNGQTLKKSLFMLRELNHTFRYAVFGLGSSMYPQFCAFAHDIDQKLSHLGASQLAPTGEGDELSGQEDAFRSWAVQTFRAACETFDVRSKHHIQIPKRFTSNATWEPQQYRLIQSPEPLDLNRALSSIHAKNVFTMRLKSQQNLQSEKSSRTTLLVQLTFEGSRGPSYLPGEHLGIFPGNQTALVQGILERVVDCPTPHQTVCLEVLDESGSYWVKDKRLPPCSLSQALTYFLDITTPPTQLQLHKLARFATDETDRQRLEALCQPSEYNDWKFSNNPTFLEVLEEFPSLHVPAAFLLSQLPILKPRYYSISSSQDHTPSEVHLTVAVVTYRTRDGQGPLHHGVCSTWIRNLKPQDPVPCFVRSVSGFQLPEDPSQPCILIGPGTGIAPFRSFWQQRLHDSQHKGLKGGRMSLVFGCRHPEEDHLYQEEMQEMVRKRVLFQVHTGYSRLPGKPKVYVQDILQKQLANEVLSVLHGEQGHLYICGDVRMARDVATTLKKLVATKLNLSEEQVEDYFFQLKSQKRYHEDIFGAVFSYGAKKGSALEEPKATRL
Excerpt: These effects of CDDO have been seen in primary mouse macrophages, a mouse macrophage-like tumor cell line (RAW 264.7), and in non-neoplastic human colon fibroblasts. […] Neither iNOS nor COX-2 expression can be detected in these cells until they are stimulated by an inflammatory mediator such as IFN-γ, or LPS. […] The above effects on INOS and COX-2 are also reflected in the cumulative production of their respective enzyme products, NO and PGE2, as measured in primary macrophages (FIG. 14C). […] Likewise, the actions of CDDO are not blocked by the glucocorticoid antagonist, RU-486, which is known to bind to the glucocorticoid receptor (data not shown). In these regards, CDDO is identical to the other oleanolic acid derivatives previously studied (Suh et al., 1998).

[1] = tested on: AML193 acute myelocytic leukemia cells; assay: Inhibition of cell proliferation (3H-thymidine incorporation); type: cell-based, human; conditions: 3 or 4 days, 3H-thymidine 12 h
Procedure: (§2) All cells were obtained from ATCC, except as noted. They were grown under standard conditions in either DMEM, DMEM/F 12, or RPMI 1640 media plus 5-10% FBS. CDDO, over the dose range 10^−6 to 10^−10 M, was added to cultures at the time of seeding. Three or 4 days later, cells were treated with ^3H-thymidine for 2 h (12 h in the case of leukemia cells), and then incorporation was measured. “ER” means estrogen receptor.

[2] = tested on: NT2/D1 embryonal carcinoma cells; assay: as above; type: cell-based, human; conditions: 3 or 4 days, 3H-thymidine 2 h
Procedure: as §2

[3] = tested on: ML-1 myeloblastic leukemia cells; assay: as above; type: cell-based, human; conditions: 3 or 4 days, 3H-thymidine 12 h
Procedure: as §2

[4] = tested on: 21-NT ER negative breast carcinoma cells; assay: as above; type: cell-based, human; conditions: 3 or 4 days, 3H-thymidine 2 h
Procedure: as §2

[5] = tested on: 21-MT-2 ER negative breast carcinoma cells; assay: as above; type: cell-based, human; conditions: 3 or 4 days, 3H-thymidine 2 h
Procedure: as §2

[6] = tested on: HL-60 myelocytic leukemia cells; assay: as above; type: cell-based, human; conditions: 3 or 4 days, 3H-thymidine 12 h
Procedure: as §2

[7] = tested on: U937 monocytic leukemia cells; assay: as above; type: cell-based, human; conditions: 3 or 4 days, 3H-thymidine 12 h
Procedure: as §2

[8] = tested on: MCF-7 ER positive breast carcinoma cells; assay: as above; type: cell-based, human; conditions: 3 or 4 days, 3H-thymidine 2 h
Procedure: as §2

[9] = tested on: NB4 promyelocytic leukemia cells; assay: as above; type: cell-based, human; conditions: 3 or 4 days, 3H-thymidine 12 h
Procedure: as §2

`CC1(C)CC[C@]2(C(=O)O)CC[C@]3(C)[C@H](C(=O)C=C4[C@@]5(C)C=C(C#N)C(=O)C(C)(C)[C@@H]5CC[C@]43C)[C@@H]2C1` [Compound 6, 2-cyano-3,12-dioxoolean-1,9-dien-28-oic acid] was tested, and the “induction of COX-2 mRNA” value (COX-2 mRNA) was “blocked induction”, the “adipogenic differentiation, combination with RXR-selective retinoid LG100268” value (3T3-L1 fibroblasts; CDDO with LG100268, day 6) was “acts synergistically” and the “adipogenic differentiation, induction of GPDH” value (3T3-L1 fibroblasts; doses as low as 10^−8 M, without insulin, dexamethasone, IBMX, day 8) was “caused adipogenic differentiation”. For the same compound, the “lowering of iNOS mRNA expression” value (iNOS mRNA) was “greater than 75%”, the “induction of COX-2 protein” value (COX-2) was “blocked induction” and the “immediate effect on NO production (direct inhibition of iNOS)” value (iNOS enzymatic activity) was “no immediate effect”. For the same compound, the IC50 [1] was 400 nM, the IC50 [2] was 100 nM and the IC50 [3] was 100 nM. It also gave an IC50 [4] of 1000 nM, an IC50 [5] of 300 nM and an IC50 [6] of 100 nM. The IC50 [7] was 200 nM, the IC50 [8] was 30 nM and the IC50 [9] was 40 nM.
